The record followed here is PubChem BioAssay (NCI).

One may read the GI50 as the concentration giving 50% growth inhibition. For orientation: TGI means the concentration giving total growth inhibition.

Structures are written as SMILES. Several values for one entry are separate records, joined by “and”; a condition that tells them apart may be missing. Equal entries are not always repeated.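 Cultured in 96-well plates, cells were exposed to test compound for 48 hours across five concentrations. Here, GI50 denotes the concentration required for 50% inhibition of growth. TGI denotes the concentration required for complete inhibition of growth.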

Common to all, as to assay: DTP human tumour cell line panel, 48 h
The test system of experiment [1] is CCRF-CEM leukemia.
Experiment [2] relates to SW-620 colon.
Experiment [3] concerns HCC-2998 colon.
Experiment [4] concerns PC-3 prostate.
The test system of experiment [5] is SF-295 CNS.
The test system of experiment [6] is CAKI-1 renal.
Experiment [7] has as its system HOP-62 NSCLC.
Experiment [8] has as its system NCI-H522 lung.
In experiment [9] the test system is SN12C renal.
Experiment [10] concerns HT29 colon.

As to `COc1ccc(-c2noc(C(=O)O)c2-c2cc(OC)c(OC)c(OC)c2)cc1`, the GI50 in experiment [1] was 3520 nM; in experiment [2], 1530 nM; in [3] it was 5750 nM; in [4], 1330 nM; in experiment [5], 1570 nM; in experiment [6], 2350 nM. For the same compound, the GI50 in [7] is 3820 nM; in experiment [8], 1590 nM; in [9] it was 37200 nM; in [10], 1500 nM. Also, the TGI in experiment [1], in experiment [2], in experiment [3], in [4], in [5] and in experiment [6] was above 100000 nM each time. Besides, the TGI in experiment [7], in experiment [8], in experiment [9] and in [10] was above 100000 nM in each case.

With `C=CCc1c(Cl)nc(Cl)nc1Cl`, the concentration for total growth inhibition (TGI) worked out at 23.4 nM in [1]; 583 nM in experiment [2]; 3400 nM in experiment [3]; 2920 nM in experiment [4]; 3940 nM in experiment [5]; 36.7 nM in experiment [6]. Moreover, the TGI in experiment [7] was found to be 1070 nM; in experiment [8], 190 nM; in experiment [9], 1460 nM; in experiment [10], 805 nM.

Take `COc1cc(/C=C/C(=O)/C=C/c2cc(OC)c3c(c2)OCO3)cc2c1OCO2`: the GI50 in [1] is 5950 nM; in [2], 3380 nM; in experiment [3], 1980 nM; in [4], 72200 nM; in experiment [5], 11300 nM; in experiment [6] it was above 100000 nM. Besides, the GI50 in experiment [7] was 4460 nM; in experiment [8] it was 14500 nM; in experiment [9] it was 30900 nM; in [10] it was 2640 nM. In addition, the TGI was above 100000 nM in experiment [1]; above 100000 nM in experiment [2]; 3730 nM in [3]; above 100000 nM in experiment [4]; above 100000 nM in experiment [5]; above 100000 nM in experiment [6]. Besides, the TGI in [7] was above 100000 nM; in experiment [8] it was above 100000 nM; in experiment [9] it was above 100000 nM; in [10], 6700 nM.

Turning to `CC1CC(C)CC(C)C(O)/C(C#N)=C/C=C/CC(C2CCCC2C(=O)O)OC(=O)CC(O)C(C)C1` (configuration not stated), the GI50 in experiment [1] is 24.1 nM; in experiment [2] it was 83.4 nM; in experiment [3], 29.7 nM; in [4], 43.4 nM; in experiment [6], 16.6 nM; in experiment [7], 18.3 nM. Also, the GI50 in experiment [8] is 2.66 nM; in experiment [9] it was 34.2 nM; in experiment [10], 64.4 nM and 28.6 nM. Besides, the concentration for total growth inhibition (TGI) in experiment [2] is 725 nM and 1340 nM; in experiment [3], 102 nM and 72.6 nM; in experiment [4], 205 nM and 208 nM; in experiment [5], 203 nM and 222 nM; in [6], 254 nM and 221 nM; in [7], 108 nM and 64.8 nM. Moreover, the total growth inhibition concentration (TGI) is 13.7 nM and < 11.9 nM in [8]; 342 nM and 727 nM in experiment [9]; 574 nM and 321 nM in experiment [10].

In the case of `C=C1CCC2C3(C)COC(C)(C)OC3CCC2(C)C1C/C=C1/C(=O)OCC1OC(C)=O` (configuration not stated), the GI50 in experiment [1] was 1810 nM; in [2], 1270 nM; in experiment [3], 15200 nM; in [4], 10200 nM; in experiment [5], 11500 nM; in experiment [6], 4920 nM. The GI50 is 11900 nM in [7], 476 nM in [8], 5950 nM in experiment [9] and 1890 nM in experiment [10]. For the same compound, the concentration for total growth inhibition (TGI) in experiment [1] was 11500 nM; in [2] it was 2740 nM; in [3], 28800 nM; in experiment [4] it was 26200 nM; in [5], 25900 nM; in experiment [6], 13000 nM. The TGI in experiment [7] worked out at 25000 nM; in experiment [8], 2000 nM; in experiment [9] it was 22600 nM; in experiment [10] it was 4850 nM.

As for `CCN1C(=O)N(CC)C2C1NN=c1s/c(=C\c3ccc(Cl)cc3Cl)c(=O)n12` (configuration not stated), the GI50 in experiment [1] is 36.1 nM; in experiment [2], 43.9 nM; in [3], 36.7 nM; in [4], 40.8 nM; in experiment [5], 31.5 nM; in experiment [6], 39.6 nM. Besides, the GI50 in experiment [7] was 46.9 nM; in experiment [8], 21.6 nM; in [9], 48.2 nM; in experiment [10], 32.9 nM. Besides, the concentration for total growth inhibition (TGI) in experiment [1] is above 100000 nM; in [2] it was above 100000 nM; in experiment [3] it was 10900 nM; in experiment [4], above 53400 nM; in [5] it was 27100 nM; in [6], 25700 nM. The TGI in experiment [7] is above 72800 nM; in experiment [8], 219 nM; in experiment [9], above 53400 nM; in experiment [10] it was 12300 nM.

`Cc1c2cnccc2c(C)c2c1c1cc(C#N)ccc1n2C`: the GI50 in experiment [1] is 249 nM; in experiment [2], 69.5 nM; in experiment [3], 293 nM; in [4], 217 nM; in [5], 201 nM; in experiment [6], 92.9 nM. Besides, the GI50 is 115 nM in experiment [7], 167 nM in experiment [8], 149 nM in experiment [9] and 87.1 nM in experiment [10]. Moreover, the total growth inhibition concentration (TGI) in [1] was determined as 2830 nM; in [2], 1170 nM; in experiment [3] it was 1550 nM; in experiment [4] it was 1110 nM; in [5] it was 859 nM; in [6], 1340 nM. Also, the TGI amounted to 1420 nM in experiment [7], 817 nM in experiment [8], 1140 nM in experiment [9] and 1050 nM in [10].

For `CNC(=S)Nc1ccc(OC)c2ccccc12`, the total growth inhibition concentration (TGI) in experiment [1] was above 10000 nM; in [2], above 10000 nM; in experiment [3], above 10000 nM; in experiment [4] it was above 10000 nM; in experiment [5], 5770 nM; in experiment [6] it was above 10000 nM. The TGI in experiment [7], in [8], in [9] and in [10] was above 10000 nM each time.

On to `CCCN1C(=O)NC(=O)C(CC)(N2C(=O)c3c(F)c(F)c(F)c(F)c3C2=O)C1=O` (configuration not stated), for which the GI50 was 1100 nM in experiment [1]; 1300 nM in [2]; 1800 nM in [3]; 1950 nM in experiment [4]; 3930 nM in experiment [5]; 1860 nM in experiment [6]. For the same compound, the GI50 in experiment [7] was 2040 nM; in [8], 1320 nM; in [9] it was 2160 nM; in experiment [10] it was 1400 nM. Moreover, the total growth inhibition concentration (TGI) in [1] turned out to be 3240 nM; in experiment [2], 2820 nM; in experiment [3], 3930 nM; in experiment [4], 5620 nM; in experiment [5], 14600 nM; in experiment [6], 3750 nM. The TGI in [7] turned out to be 4400 nM; in experiment [8] it was 3340 nM; in [9] it was 6140 nM; in [10] it was 3620 nM.

As to `c1ccc(-c2nc(-c3ccccn3)nc(-c3ccccn3)n2)nc1`, the GI50 in [1] is 14400 nM; in experiment [2], 28000 nM; in experiment [3] it was 75500 nM; in [4], 48100 nM; in experiment [5], 21200 nM; in [6] it was 3880 nM. The GI50 in experiment [7] is 30400 nM; in [8], 21600 nM; in experiment [9], 56600 nM; in experiment [10] it was 6730 nM. Moreover, the concentration for total growth inhibition (TGI) in [1] was above 100000 nM; in [2], above 100000 nM; in [3], above 100000 nM; in [4], above 100000 nM; in experiment [5], above 100000 nM; in experiment [6], 34300 nM. Moreover, the TGI in experiment [7] was above 100000 nM; in [8], 81800 nM; in experiment [9] it was above 100000 nM; in experiment [10], above 100000 nM.

Turning to `N#CC(C#N)=C/C=C(\Cl)c1ccc(Cl)cc1`, the GI50 in experiment [1] is 425 nM; in [2], 1930 nM; in [3], 6750 nM; in experiment [4], 8620 nM; in experiment [5], 9730 nM; in experiment [6] it was 3780 nM. In addition, the GI50 in experiment [7] was 14300 nM; in experiment [8], 5810 nM; in experiment [9], 4520 nM; in experiment [10] it was 980 nM. Further, the TGI was above 100000 nM in experiment [1]; 9900 nM in experiment [2]; 19900 nM in experiment [3]; above 46200 nM in experiment [4]; 36400 nM in experiment [5]; 12600 nM in [6]. The TGI was 31300 nM in experiment [7], above 49600 nM in [8] and 26700 nM in experiment [9].
